Assay results: PMC12935919 (Frontiers in Pharmacology, 2026)
No end group written: not given here.

Tests used:
[1] = target: T1, human recombinant Myostatin-Fc protein (Mus musculus, UniProt O08689); assay: Surface plasmon resonance (SPR) analysis, Biacore T200; type: binding; settings: 3.125 μM to 200 μM, 25 °C, HBS-EP
T1 construct: purchased Sino Biological 50441-M01H
T1 sequence (O08689 268-376): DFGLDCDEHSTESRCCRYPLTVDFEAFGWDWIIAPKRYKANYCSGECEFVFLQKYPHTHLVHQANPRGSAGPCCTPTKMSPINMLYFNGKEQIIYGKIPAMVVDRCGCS
Protocol: The human recombinant Myostatin-Fc protein (Sino Biological, #50441-M01H) was immobilized on the surface of a CM5 sensor chip at 2210.3 response units (RUs) using an EDC/NHS amine coupling kit, following the manufacturer’s instructions. […] Data analysis was performed using Biacore T200 Evaluation Software version 3.1 (Cytiva).

[2] = tested on: SAMP8 mice; assay: H&E myofiber area in muscle; type: in vivo, mouse; settings: oral gavage once daily 45 weeks, 20 mg Myoki in 200 µL PBS, n = 5, vs SAMP8 group
Protocol: (§1) Eight week old male senescence-accelerated mouse-prone 8 (SAMP8)/Ta Slc and senescence-accelerated mouse-resistant 1 (SAMR1)/Ta Slc mice (weighing 30 ± 2 g) were purchased from Central Lab Animal Inc. (Seoul, Korea) and housed at 24 °C in cages under a 12/12 h light/dark cycle with ad libitum access to food and water. […] Mice in all groups were dosed once daily by oral gavage for 45 weeks. […] This study was approved by the Institutional Animal Care and Use Committee (approval number CG-R22-001).
(§2) Quadriceps (Quad) and gastrocnemius (Gas) muscle tissues were harvested and immersion-fixed in 10% neutral buffered formalin at 4 °C for 24 h. Following fixation, the tissues were dehydrated through a graded series of ethanol, cleared in xylene, and embedded in paraffin. Paraffin-embedded tissues were sectioned at a thickness of 5 μm. The tissue sections mounted on slides were deparaffinized, washed, and stained with hematoxylin (Dako, S3309) and eosin (Thermo Fisher Scientific, #6766007) (H&E). To assess the degree of muscle fibrosis, they were also stained using a Sirius Red Stain Kit (Abcam, ab150681) according to the manufacturer’s instructions. […] For each animal, three images were randomly selected from the stained sections, and the total stained area per image, rather than individual muscle fibers, was quantified using ImageJ software.

[3] = tested on: SAMP8 mice; assay: Sirius Red collagen deposition in muscle; type: in vivo, mouse; settings: normalized to SAMR1 = 100%, oral gavage 45 weeks, 20 mg in 200 µL PBS, n = 5, mean ± SD
Protocol: as §1, §2

[4] = tested on: SAMP8 mice; assay: Immunofluorescence in skeletal muscle tissues; type: in vivo, mouse; settings: oral gavage 45 weeks, 20 mg in 200 µL PBS
Protocol: as §1
Muscle tissues fixed in formalin were sectioned into 5-μm paraffin section. They were treated with heat-mediated antigen retrieval in TRS buffer TRS buffer (pH 6.2) and peroxide-blocked using reagent (Epredia, TA-125-PBQ). Primary antibodies—anti-myostatin (Abcam, ab124721), anti-atrogin-1/MAFbx (Santa Cruz, sc-166806), and anti-fast MyHC (Abcam, ab91506)—were diluted 1:250 or 1:500 in anti-body diluent (GBI Labs, E09-300) and incubated overnight at 4 °C. […] Nuclei were stained with 4′,6-diamidino-2-phenylindole (DAPI; blue) for 20 min, mounted using Aqua Mounting Media (Biomeda), and imaged at 200× with a confocal fluorescence microscope (LEICA, Wetzlar, Germany). Fluorescence intensities were quantified using ImageJ software, and results were statistically analyzed.

[5] = tested on: C2C12 cells; assay: Preliminary screening of candidate peptides; type: cell-based
Description: Supplementary Figure 1. […] Western blot images from the screening experiment are shown, and the summary table indicates peptides that met each criterion (O, yes; X, no; –, not determined).

SPR binding to myostatin ([1]; seven concentrations, CM5 chip, 2210.3 RU immobilized, 30 μL/min, steady-state affinity fit, Kd not given): binds to Myostatin
response units (RUs) ([1]; SPR): increased dose-dependently
Substance: EAEYEHL-OH [Myoki]
association and dissociation ([1]; SPR): relatively rapid association and dissociation
myofiber area, gastrocnemius [2]: significantly increased
myofiber area, quadriceps [2]: significantly increased
collagen deposition, quadriceps ([3]; untreated SAMP8 185% ± 10.61%, difference not statistically significant): 151% ± 28.82%
collagen deposition, gastrocnemius ([3]; untreated SAMP8 291% ± 19.72%): 194% ± 22.84%
fast-MyHC fluorescence intensity ([4]; n = 5): restored toward SAMR1 levels
atrogin-1/MAFbx fluorescence intensity, gastrocnemius ([4]; n = 5, vs SAMP8 group): significantly decreased
myotube differentiation (screening) [5]: promoted myotube differentiation
DEX-induced activation of muscle protein degradation signaling, particularly atrogin-1/MAFbx upregulation (screening) ([5]; DEX): attenuated
